Measurements taken from patent US11952356B2, “Crystalline form of 1,4-bis[1,2-benzisoselenazol-3(2H)-one]-butane, method for preparing same and use thereof” (SHANGHAI YUANXI MEDICINE CORP., priority 2019, dated 2024).
Where two headings read alike, the source gives them in different places.

Experiments:
[1] = Grinding test, crystalline form by XRD; format: physicochemical
HBV [2] = test: HBeAg assay in culture supernatant; format: cell-based
Procedure: (§1) Cell plating: HepAD38 cells were seeded in 24-well plates at a density of 8×10^4 cells/well, each well containing 500 μL of culture medium. Treatment: 9 h after plating, the cells were observed. […] The cells were cultured for 48 h, washed with PBS twice, added with the above drugs, and cultured for another 48 h. After the 48 h, the supernatant was collected, and HBV DNA, HBsAg, and HBeAg in the supernatant were detected. HBV DNA was preferentially determined.
HBsAg and HBeAg assays in culture supernatant: The assay was time-resolved immunofluorescence (ELISA) according to HBsAg and HBeAg assay kits of PE Corporation.
After 48 h, 1 mL of cell culture supernatant was collected for detecting HBsAg and HBeAg. The cells were washed at least 5 times with PBS. 1 mL of the last PBS washings was collected and used as the baseline for determining whether the plasmids were washed away. Note: when washing the cells, PBS was slowly added into the dish along the wall of the dish without resuspending the cells. The dish was then gently shaken to wash the cells, and the residual PBS was discarded after each washing to minimize the plasmid residues.

H22 cells = test: Tumor inhibitory activity assay in H22 mice; format: in vivo, mouse; conditions: 180 mg/kg once daily oral gavage; for Tumor growth inhibition: n=10
Procedure: After 2 days of acclimation, qualified animals were randomized into 4 groups with 10 animals each. On day 0, H22 cells were grafted at 1×10^4/mouse subcutaneously at the right axilla. The treatment started at 24 h after grafting. Long and short diameters of tumor were recorded daily and the tumor size was calculated according to the formula: long diameter×short diameter^2×0.5236. The body weight was measured every 2 days. After 21 days of treatment, blood was collected from eyeballs after chloral hydrate anesthesia. The mice were sacrificed and tumors were collected quickly.

[3] = tested on: hepatic fibrosis animal model; test: CCl4-induced hepatic fibrosis animal model; format: in vivo, Balb/c mice; conditions: for average body weight / ALB (serum) / ALP (serum) / ALT (serum) / AST (serum) / TGF (serum) / TP (serum) / TrxR1 (serum): end of study; for ALB (serum) / ALP (serum) / ALT (serum) / AST (serum) / TGF (serum) / TP (serum) / TrxR1 (serum): model group = 1.00
Procedure: Animals: Balb/c inbred mice, male, six weeks old, purchased from Peking University, Health Science Center, Department of Laboratory Animal Science, with license number SCXK(Jing)2016-0010. The breeding environment was clean. The accommodation temperature was 25±2° C. The mice were bred in 12-hour light/darkness cycle, and had sufficient food and water supply.
After being prepared into a solution or suspension, the compound was administered to the mice at a dose of 5 mL/Kg.
20 male Balb/c mice aged 6 weeks were randomized into 4 groups. After a staged gradient induction using 25% CCl4 for 4 weeks (three times a week), the treatment started in the BSL (90 mg/kg) group and the BSM (180 mg/kg) group once a day, and the control group and model group were administered with 5‰ CMC-Na solution. After 8 weeks of induction, the mice were sacrificed and the blood was collected and centrifuged at 3000 rpm for 15 min to give the serum for detecting TGF-β1, TrxR1, AST, ALT, ALP, TP and the expression (hepatic fibrosis animal model is shown in FIG. 6). Part of liver was fixed with 4% paraformaldehyde, and subjected to immunohistochemical HE staining and Masson staining. Expressions of α-SMA and Collagen I in liver tissue were detected immunohistochemically. Part of liver was preserved in liquid nitrogen.

[4] = Stability test of crystalline form I (XRD after storage); format: physicochemical; conditions: 40° C./75% relative humidity and 60° C., 3 to 7 days
HBV [5] = test: HBV DNA assay in HepAD38 culture supernatant; format: cell-based; conditions: for Supernatant HBV DVA level: HepAD38 cells
Procedure: as §1
HBV DNA assay in culture supernatant: According to TransGen's Viral Nucleic Acid Extraction kit, the nucleic acid was extracted and by SYBR green qPCR, the viral DNA load was determined.
(§2) Procedures for determining HBV DNA, HBV RNA, HBsAg and HBeAg in cell culture supernatant are as follows:
(§3) The cells were transferred to a larger culture dish, and cultured in a culture medium for 3 days. 1 mL of cell supernatant was collected for detecting HBV DNA and HBV RNA. If the detection was not timely performed, the samples were stored at −20° C.
(§4) 1 mL of collected cell culture supernatant and the last PBS washings collected at 48 h were centrifuged at 5000 rpm for 5 min. 200 μL of the supernatant after centrifugation was added to 5 μL of DNaseI+5 μL of DNasel buffer, well mixed and subjected to instantaneous centrifugation. The supernatant was incubated for 1 h at 37° C., mixed once every 30 min, and subjected to instantaneous centrifugation. After 1 h, 5 μL of EDTA was added and the system was incubated at 65° C. for 10 min before the DNaseI reaction was terminated.
(§5) 200 μL of HBV nucleic acid in cell supernatant was concentrated into a system of 20 μL by using a TransGene's HBV nucleic acid extraction kit.
(§6) The supernatant HBV DNA level and the baseline level of plasmid in PBS after DNase treatment were measured by real-time PCR. After reverse transcription of HBV RNA into cDNA, real time PCR was performed to detect the level.

HBV [6] = test: HBV RNA assay in cell culture supernatant; format: cell-based
Procedure: as §1, §2, §3, §4, §5, §6
(2) cDNA quantitative system after reverse transcription of HBV RNA: […]

[7] = BSL and BSM groups vs model group

Structure (SMILES): O=c1c2ccccc2[se]n1CCCCn1[se]c2ccccc2c1=O [Crystalline form I, 1,4-BIS[1,2-BENZISOSELENAZOL-3(2H)-one]-butane]
- Crystalline form after grinding (XRD) ([1]; listed as Example 1): Crystalline form I
- Supernatant HBeAg level (HBV [2]; 0.5 μM): 22%
- Supernatant HBeAg level (HBV [2]; 1.0 μM): 17%
- Supernatant HBeAg level (HBV [2]; 5.0 μM): 43.1%^
- Inhibition effect on supernatant HBeAg (HBV [2]; summary in words): good inhibition effect
- Mean tumor weight (H22 cells; after 21 days of treatment): 138.33 mg
- Tumor growth inhibition (tumor weight) (H22 cells; after 21 days of treatment): 88.70%
- Tumor growth inhibition (tumor weight) (H22 cells; after 21 days of treatment, listed as crystalline form I): up to 88.7%
- Tumor growth inhibition (H22 cells; day 9, tumor size): 70.42%
- Tumor growth inhibition (H22 cells; day 10, tumor size): 78.32%
- Tumor growth inhibition (H22 cells; day 11, tumor size): 76.31%
- Tumor growth inhibition (H22 cells; day 12, tumor size): 78.27%
- Tumor growth inhibition (H22 cells; day 13, tumor size): 76.03%
- Tumor growth inhibition (H22 cells; day 14, tumor size): 72.24%
- Tumor growth inhibition (H22 cells; day 15, tumor size): 65.74%
- Tumor growth inhibition (H22 cells; day 16, tumor size): 76.97%
- Tumor growth inhibition (H22 cells; day 17, tumor size): 78.21%
- Tumor growth inhibition (H22 cells; day 18, tumor size): 82.33%
- Tumor growth inhibition (H22 cells; day 19, tumor size): 87.15%
- Tumor growth inhibition (H22 cells; day 20, tumor size): 88.49%
- Tumor growth inhibition (H22 cells; day 21, tumor size): 86.67%
- average body weight ([3]; BSL 90 mg/kg once a day, n ≥ 4): 17 g
- average body weight ([3]; BSL 90 mg/kg): 17.00 ± 0.68 g
- ALB (serum) ([3]; BSL 90 mg/kg): 1.83
- ALP (serum) ([3]; BSL 90 mg/kg): 0.82
- ALT (serum) ([3]; BSL 90 mg/kg): 0.48
- AST (serum) ([3]; BSL 90 mg/kg): 0.29
- TGF (serum) ([3]; BSL 90 mg/kg): 0.76
- TP (serum) ([3]; BSL 90 mg/kg): 1.35
- TrxR1 (serum) ([3]; BSL 90 mg/kg): 0.82
- Collagen1 expression in liver (staining) [3, 7]: significantly reduced
- HE staining: symptoms of hepatocyte necrosis and inflammation [3, 7]: significantly reduced
- Masson staining: fibrosis symptoms [3, 7]: gradually relieved
- α-SMA expression in liver (staining) [3, 7]: significantly reduced
- average body weight ([3]; BSM 180 mg/kg once a day, n ≥ 4): 18 g
- average body weight ([3]; BSM 180 mg/kg): 18.04 ± 2.23 g
- ALB (serum) ([3]; BSM 180 mg/kg): 1.47
- ALP (serum) ([3]; BSM 180 mg/kg): 0.73
- ALT (serum) ([3]; BSM 180 mg/kg): 0.39
- AST (serum) ([3]; BSM 180 mg/kg): 0.27
- TGF (serum) ([3]; BSM 180 mg/kg): 0.85
- TP (serum) ([3]; BSM 180 mg/kg): 1.36
- TrxR1 (serum) ([3]; BSM 180 mg/kg): 0.89
- Liver surface symptoms (roughness, granular sensation) ([3]; treatment groups (BSL 90 mg/kg, BSM 180 mg/kg) vs model group): improved
- XRD pattern after storage [4]: unchanged
- Supernatant HBV DVA level (HBV [5]; 0.5 μM): 62%
- Supernatant HBV DVA level (HBV [5]; 1.0 μM): 63%
- Supernatant HBV DVA level (HBV [5]; 5.0 μM): 70%
- Inhibition effect on HBV DNA (HBV [5]; summary in words): good inhibition effect
- Supernatant HBV RNA level (HBV [6]; 0.5 μM): 48%
- Supernatant HBV RNA level (HBV [6]; 1.0 μM): 42%
- Supernatant HBV RNA level (HBV [6]; 5.0 μM): 43%

Structure (SMILES): O=c1c2ccccc2[se]n1CCCCn1[se]c2ccccc2c1=O [Crystalline form I-a, 1,4-BIS[1,2-BENZISOSELENAZOL-3(2H)-one]-butane]
- Crystalline form after grinding (XRD) [1]: crystalline form I
- Crystalline form after grinding (XRD) ([1]; listed as Comparative Example 1): Crystalline form I
- Crystalline form after grinding (XRD) ([1]; listed as Comparative Example 2): Crystalline form I
- Crystalline form after grinding (XRD) ([1]; listed as Comparative Example 3): Crystalline form I

Structure (SMILES): C=C1[C@H](CO)[C@@H](O)C[C@@H]1n1cnc2c(=O)[nH]c(N)nc21 [ETV, entecavir, reference compound]
- Supernatant HBeAg level (HBV [2]; ETV concentration not given): 36.8%
- Supernatant HBV DVA level (HBV [5]; ETV concentration not given): 80%
